# Laboratory results as given in paper PMC7377376, “Drug targeting CYP2E1 for the treatment of early-stage alcoholic steatohepatitis” (PLoS ONE, 2020).
# Tests used:
# [1] = tested on: ethanol-fed Wistar rats; assay: Liver histopathology of ethanol-fed rats; format: in vivo, rat; settings: I-ol, I-an in their higher concentrations; UDCA 40 mg/kg b.w.; H.E. staining
# Procedure: (§1) In the first two weeks rats of all groups–with the exception of group 1 –were fed with LDC diet plus maltodextrin in an appropriate amount to adapt the animals to the liquid diet. Group 2 is the second control group in which the isocaloric diet was administered for further 10 weeks until the end of the experiment. […] The test compounds I-ol, I-an and UDCA were dissolved in a 0.8% aqueous HPMC gel to obtain the appropriate concentrations: (1) I-ol with 0.4, 4 and 40 mg/kg b. w. (2) I-an with 0.4, 4 and 40 mg/kg b. w. (3) UDCA with 40 mg/kg b. w. Rats of group 2 and 3 received only HPMC as a placebo. The LDC diets were fed ad libitum and their intake per cage was controlled daily. The corresponding bottles were stored in the cages from 08:00 a. m. until 06:00 p. m. and replaced by drinking water bottles overnight until 08:00 a. m. in the next morning. Every day at the same time, the test compounds or only HPMC were administered intragastrically by oral gavage with an administration volume of 2 ml/kg b. w. After ten weeks of treatment, the rats were anesthetized with an intraperitoneal injection of a 5% pentobarbital solution and then killed by aorta scarification. Their livers were dissected and liver pieces frozen and stored in liquid nitrogen. A part of the liver was fixed for histological investigations. Blood was collected before sacrifice, centrifuged for serum preparation and finally stored in liquid nitrogen.
# Liver samples were selected randomly, fixed in Bouin`s solution and embedded in paraffin wax. Histological sections were prepared and stained with haematoxylin and eosin. Other liver samples were fixed in a solution containing formaldehyde, paraformaldehyde and glutaraldehyde with a subsequent post-fixation in 1% osmium containing phosphate buffer pH 7.4 for further analysis. Liver tissue was embedded in a mixture of butyl-methyl-metacrylates. Semifine sections of 0.5–1.0 μm were stained with Asur II, methylen blue and basic fuxine.
# [2] = biological target: T1, human cytochrome P450 2E1 (Homo sapiens, UniProt P05181); assay: Steady-state p-nitrophenol oxidation, CYP2E1 inhibition in SUPERSOMES; format: biochemical
# T1 construct: purchased BD Biosciences
# T1 sequence (P05181 whole entry): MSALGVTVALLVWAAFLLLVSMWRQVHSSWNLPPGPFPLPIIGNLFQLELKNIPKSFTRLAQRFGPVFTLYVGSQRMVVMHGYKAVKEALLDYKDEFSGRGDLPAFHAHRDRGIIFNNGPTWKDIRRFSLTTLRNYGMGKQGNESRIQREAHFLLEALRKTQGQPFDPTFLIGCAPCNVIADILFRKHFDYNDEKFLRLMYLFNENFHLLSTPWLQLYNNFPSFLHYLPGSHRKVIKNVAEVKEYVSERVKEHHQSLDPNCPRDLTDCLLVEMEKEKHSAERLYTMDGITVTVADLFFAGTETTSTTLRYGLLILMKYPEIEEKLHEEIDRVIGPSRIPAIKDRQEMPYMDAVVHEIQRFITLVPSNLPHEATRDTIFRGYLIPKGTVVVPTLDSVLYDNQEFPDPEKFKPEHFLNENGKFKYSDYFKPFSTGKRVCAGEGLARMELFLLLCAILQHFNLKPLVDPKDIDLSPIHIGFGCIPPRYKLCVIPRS
# Procedure: Initial velocities of the oxidation of p-nitrophenol (p-NP) to p-nitrocatechol by human cytochrome P450 2E1 were determined by measuring the absorption at 535 nm or 546 nm to determine product formation as described before.
# Alternatively, 100 mM HEPES pH 7.6 was additionally used for the enzyme kinetic measurements. A final concentration of either 50 nM enzyme in form of SUPERSOMES™ from BD Biosciences or microsomes in case of cell culture experiments was added. Reaction was initiated by adding 500 μM (enzyme kinetic measurements) or 0.1 mM (cell culture experiments) NADPH after preincubation at 37° C and stopped by adding 20% trichloroacetic acid (TCA) after 30 minutes to ensure linearity of product formation. The protein concentration for the microsomal fraction was determined by Bradford assay to calculate the results expressed as units of specific activity defined as the amount of enzyme that consumes 1 μmol/L of NADPH per hour per microgram of protein. Inhibitor stock solutions were prepared in 0.1% DMSO and diluted to a final DMSO concentration of 0.003% in the reaction mixture at most to avoid enzyme inhibition by this solvent. Inhibitory constants (Ki) were calculated by non-linear fitting of initial velocities. Maximum inhibition could not be achieved since final inhibitor concentrations were limited by DMSO.
# Supplementary file pone.0235990.s002.tif: S2 Fig CYP2E1 inhibition by data base inhibitors. To ascertain whether an imidazole containing compound is already commercially available and better suited for development as a drug can-didate, we performed a large virtual library screening of the ZINK database. We found 14,738 hits. The 5,261 commercially available compounds could be classified as 4,710 synthetic and 551 natural molecules. After docking and final scoring process, the seven best synthetic and the three best natural candidates were purchased and tested in vitro for their potential to inhibit CYP2E1 activity. Different concentrations of these compounds dissolved in DMSO were added to 110 μM p-Nitrophenol in 100 mM HEPES buffer pH 7.6 and SUPERSOMES™ with 50 nM human CYP 2E1 to calculate relative activity values. […] 20 μM corresponds to a DMSO volume of 0.02% (v/v). (TIF) Click here for additional data file.
# [3] = tested on: ethanol-fed Wistar rats; assay: Serum liver enzyme activities of ethanol-fed rats; format: in vivo, rat; settings: for reduction of ethanol effect on γ-GT activity: UDCA 40 mg/kg; for reduction of ethanol effect on ALT activity: average over 0.4/4/40 mg/kg b.w.; for γ-GT activity above the reference value of healthy animals: highest concentration
# Text: A total of 68 female Wistar rats (Institute of Pharmacology and Biochemistry Breeding House, Minsk, Belarus) aged 80–90 days and weighting 180–200 g at the beginning of the experiments were used in the study. Each rat group (n = 6–8) was housed in a separate cage and had free access to the liquid diet during the full study period. Prior to the study, the animals were habituated for seven days to the cage conditions and experimental handling. The rats were maintained in a controlled experimental environment (20–25°C, 40–50% humidity, 12 h light per day, room with a 12-h light/dark cycle).
# Rats were divided into ten groups characterized by the diet and the test compounds (S1 Table). Group 1 is the first control group in which a normal solid standard diet was fed for 12 weeks. All other groups received the liquid Lieber-DeCarli (LDC) diet (S2 Table), which combines food and drink in a liquid manner. It was prepared by ssniff Spezialdiäten GmbH, Soest. The addition of maltodextrin to this diet should compensate the pure caloric effect of ethanol, whereby 1.77 g maltodextrin replaces 1 g ethanol. The calorie value of both the control and ethanol diets was the same: 35% calories from fat, 11% from carbohydrates, 18% from protein and 36% from ethanol.
# as §1
# The serum marker enzyme activities, alanine aminotransferase (ALT), aspartate aminotransferase (AST), alkaline phosphatase (AP) and gamma-glutamyltransferase (γ-GT) as well as triglycerides and bilirubin were measured according to manufacturer’s instructions using standard commercial kits from Lachema (PLIVA-Lachema Diagnostika, Czech Republic). Serum concentrations of leptin, adiponectin and TNF-alpha were analyzed using commercial ELISA test kits: BioCat GmbH (Heidelberg, German) for adiponectin and TNF-alpha, BioVendor Laboratory Medicine Inc. (Brno, Czech Republic) for leptin. Insulin serum concentration was determined by radioimmunoassay using the commercially available kit RIO-insulin-PG-J125 (IBOCH, Minsk, Belarus). Glucose serum concentration was determined by the Accu-Check Active blood glucose testing system from Roche-Diagnostics GmbH (Mannheim, Germany).
# [4] = average over doses (UDCA 40 mg/kg)
Compound,"liver morphology (histopathology, in words) [1]",Ki value (in words) [2],inhibitory effect on CYP2E1 (in words) ([2]; human CYP2E1 SUPERSOMES),reduction of ethanol effect on γ-GT activity [3],reduction of ethanol effect on ALT activity [3],"ALT activity decrease compared to disease group [3, 4]","AP activity decrease compared to disease group [3, 4]","AST activity decrease compared to disease group [3, 4]","reduction of ethanol effect on AST activity [3, 4]","γ-GT activity decrease compared to disease group [3, 4]",γ-GT activity above the reference value of healthy animals [3],AST activity above the reference value of healthy animals ([3]; lowest concentration),reduction of ethanol effect on alkaline phosphatase (AP) activity ([3]; on average (UDCA 40 mg/kg)),ALT activity (in words) ([3]; lowest concentration),AP activity decrease compared to disease group ([3]; lowest concentration),reduction of ethanol effect on alkaline phosphatase (AP) activity ([3]; lowest concentration)
"CCCCCCCCCCCCn1ccnc1 [I-an, 1-Imidazolyldodecane]",almost complete restoration of the physiological liver morphology,nanomolar range,lower affinity,60%,59%,24%,29%,11%,48%,33%,12%,6%,96%,–,–,–
OCCCCCCCCCCCCn1ccnc1 [I-ol],almost complete restoration of the physiological liver morphology,nanomolar range,–,68%,70%,29%,–,14%,60%,37%,28%,6%,–,complete restoration of the basic activity,27%,87%
